Reference: ChEMBL document CHEMBL5500423, “More than an Amide Bioisostere: Discovery of 1,2,4-Triazole-containing Pyrazolo[1,5-a]pyrimidine Host CSNK2 Inhibitors for Combatting β-Coronavirus Replication” (J Med Chem, 2024)
The source made the active and inactive calls. No cut-off for these calls is given here.

Assays:
Format in all cases: functional, organism-based
SARS-CoV-2 [1] = details: Severe acute respiratory syndrome coronavirus 2; MA10; dose 10.0 mg/kg, route ip, time 36.0 hrs
Mus musculus [2] = details: CD-1, dose 10.0 mg/kg, route ip, time 36.0 hrs
Mus musculus [3] = details: CD-1, dose 10.0 mg/kg, route ip, time 36.0 hrs; remark: listed apart in the source
SARS-CoV-2 [4] = experiment: Antiviral activity against activity SARS-CoV-2 infected in human A549-ACE2 cells assessed as inhibition of viral replication pretreated with cells for 1 hrs followed by viral infected for 2 hrs and replacement with fresh medium containing compounds and measured 48 hrs post infection; details: Severe acute respiratory syndrome coronavirus 2, A549-ACE2

## CCN(CCN)c1ccc(Nc2cc(NC3CC3)n3ncc(C#N)c3n2)cc1-n1cnnc1
SARS-CoV-2 [1]
  Activity: inactive
Mus musculus [2]
  inhibition: inactive
Mus musculus [3]
  inhibition: inactive
SARS-CoV-2 [4]
  IC50: 390 nM
